What was measured:
[1] = system: rat cardiac muscle cells in primary culture; experiment: PDT cell lethality (CCK-8) in cardiac muscle cells in primary culture; assay type: cell-based
Procedure: The relationship between the photosensitizer concentration and the cell lethality and the laser output required to induce a cell death were investigated using rat cardiac muscle cells in primary culture.
Cardiac muscle cells in primary culture were purchased from Cell Garage Co., Ltd. as an extract from the rat ventricular muscle. As a medium, D-MEM/F12+10% FBS was used.
Cardiac muscle cells in primary culture were purchased in suspension and seeded on a 96-well microplate. Cells were cultured at 37° C. under 5% CO2, and cells on days 3 and 7 of culture were used. The cardiac muscle cells in primary culture were pulsatile, and pulsations among cells were synchronizing.
Cardiac muscle cells in primary culture were adjusted to a density of 2.0×10^4 cells/well. As a photosensitizer talaporfin sodium was dissolved in a medium at various concentrations and added at a concentration of 0.1 ml/well. After 1 to 2 h of loading, laser irradiation was performed, and the medium was replaced after the completion of irradiation.
At this time, a 0.5-cm^2 irradiation field (=area of well) was irradiated with a continuous semiconductor laser beam (peak wavelength, 670.8 nm) under various conditions.
After laser irradiation, 0.01 ml of Cell Counting Kit-8 (Dojindo Laboratories, hereinafter referred to as CCK-8) was added to the medium in each well, the plate was incubated for 2 h, and the absorbance was measured to calculate the cell lethality. Six samples were examined
The experimental conditions were as follows.
(i) Cells on day 3 of culture
Used cells: cells on day 3 of culture
Agent concentrations: 5, 10, 15 μg/ml
Laser intensity: 150 mW/cm^2
Total energy density: 1, 2, 3, 5 J/cm^2
(ii) Cells on day 7 of culture
Used cells: cells on day 7 of culture
Agent concentrations: 20, 25, 30 μg/ml
Total energy density: 3 J/cm^2

[2] = system: rat atrioventricular node; experiment: Atrioventricular block experiment by PDT in in vivo system; design: species or system Wistar rat
Procedure: Wistar rats (male, 8 weeks old) were anesthetized by inhalation of diethyl ether, four limbs and front teeth were fixed, a tube was inserted into the bronchial tube, and an artificial ventilator (Natsume Seisakusho Co., Ltd.) and a forane vaporizer anesthesia apparatus (Shinano Instrument, Co., Ltd.) were introduced into the body. Thoracotomy was performed between the right chest rib, and the experiment was performed while the heart was exposed.
A solution obtained by dissolving Laserphyrin in 5 ml of physiological saline was administered to venous blood from the right ventricular cavity. The photosensitizer dose (D) and the interval to photoradiation in each experiment were as follows.
Experiment 1: D=2 mg/kg, laser irradiation at interval of 5 and 60 min
Experiment 2: D=10 mg/kg, laser irradiation at interval of 2 and 30 min
A semiconductor laser beam (SONY, wavelength peak, 670 nm band) was transmitted using a quartz fiber with a laser intensity of 500 mW/cm^2 at the end. The end was attached to a portion in the vicinity of the base of the aorta, and photoradiation was performed towards the atrioventricular node (existing in a portion approx. 3 mm deep from the surface) in the right atrial inner wall for 10 min with the total dose of laser irradiation of 300 J/cm^2 (FIG. 30).
A needle electrode was inserted into four limbs of a rat, electrocardiogram leads I, II, and III were induced with an electrocardiograph (Nihon Kohden Corporation), and signals were recorded using a biosignal recording/analyzing apparatus and analyzed (FIG. 31). FIG. 31 is a schematic view showing an in vivo experimental system.
After completion of the experiment, the rat chest was closed and sutured. Then, a normal feed and water were given and allowed to survive, and anesthetized again at approx. 2 weeks so that electrocardiography should be performed.
The heart sample of Experiment 1 was isolated after electrocardiography at 2 weeks (the isolation method was the same as in Example 6), 4% paraformaldehyde was introduced from the coronary artery, and the perfusion-fixed sample was immersed in approx. 40 ml of the solution and left on a mix roller overnight. Then, a HE sample and an Azan stained specimen at a laser irradiation site were prepared and observed under a microscope.

[3] = Fluorescence observation of photosensitizer distribution in rat cardiac muscle tissue over time; assay type: in vivo, Wistar rat; conditions: 2 mg/kg i.v.
Procedure: As a tissue, the right ventricular free wall isolated from a Wistar rat (male, 8 to 10 weeks old) was used. Immediately after animals were allowed to inhale vaporized diethyl ether, heparin and Nembutal (0.2 and 0.5 ml, respectively) were administered intraperitoneally at a dose of 2 mg/kg, and a solution of Laserphyrin (Meiji Seika Kaisha, Ltd.) dissolved in physiological saline at a dose of 0.5 ml were intravenously injected from the lower extremity vena cava. The heart was isolated at 5 min (Experiment 1), 30 min (Experiment 2), and 60 min (Experiment 3) after injection, and the target tissue was ablated. […] As a sample for fluorescence observation, a cross-section of the above-mentioned tissue was excised in a thickness of 10 μm using a freezing microtome in the direction in which the base and the apex of the heart are aligned, placed on a slide glass, and dried for one or two days.
A light of a mercury lamp (Olympus Corporation) was attenuated with an ND filter (Olympus Corporation, 12%), and only a light in the 400-nm band was extracted with a band path filter (Olympus Corporation) and delivered to the sample as an excitation light. Fluorescence of the photosensitizer was selectively extracted with a dichroic mirror (OMEGA, 636 nm-) and a band path filter (OMEGA, 695 nm; half bandwidth, 27.5 nm) and photographed with a CCD camera. […]

[4] = in vivo; conditions: rat, half-life of photosensitizer concentration in the heart
Procedure: FIG. 46 is a graph showing changes in the photosensitizer concentration in the rat heart at doses of 5 and 2 mg/kg together with changes in plasma concentration in rats and humans.

[5] = human; intravenous injection 1 mg/kg; cited from earlier work
[6] = Experiment 2: 10 mg/kg, 300 J/cm^2
[7] = Experiment 2: 10 mg/kg, interval 30 min, 300 J/cm^2

C=Cc1c(C)c2cc3nc(c(CC(=O)N[C@@H](CC(=O)O)C(=O)O)c4[nH]c(cc5nc(cc1[nH]2)C(C)=C5CC)c(C)c4C(=O)O)[C@@H](CCC(=O)O)[C@@H]3C [talaporfin sodium, mono-L-aspartyl chlorine 6]
cell lethality at 5 J/cm^2 vs 3 J/cm^2 ([1]; cells on day 3 of culture, 15 μg/ml): the cell lethality decreased at the total energy density of laser irradiation of 5 J/cm^2 as compared with that at 3 J/cm^2
cell lethality vs total energy density ([1]; cells on day 3 of culture, high talaporfin sodium concentration, 1, 2, 3, 5 J/cm^2, FIG. 10): the greater the total energy density of laser irradiation was, the higher cell lethality was
cell lethality, day 7 vs day 3 cells ([1]; cells on day 7 of culture, 20, 25, 30 μg/ml, 3 J/cm^2, FIG. 11): the cell lethality was higher than when cells on day 3 of culture were used
electrocardiogram after 2 weeks ([2]; Experiment 1: 2 mg/kg, 300 J/cm^2): the 2:1 atrioventricular block disappeared, and a normal atrioventricular conduction was confirmed
histology (Azan stain) at laser irradiation site at 2 weeks ([2]; Experiment 1: 2 mg/kg, 300 J/cm^2, FIG. 36): a scar tissue (a damaged cellular tissue was replaced with the surrounding collagenic fibers) is observed
atrioventricular block (electrocardiogram) ([2]; Experiment 1: 2 mg/kg, interval 5 min, 300 J/cm^2): an atrioventricular block disappeared during the process of photoradiation
atrioventricular block (electrocardiogram) after photoradiation ([2]; Experiment 1: 2 mg/kg, interval 60 min, 300 J/cm^2): 2:1 atrioventricular block
completeness of conduction block ([2]; Experiment 1, laser irradiation dose 300 J/cm^2): the conduction block was incomplete
electrocardiogram at 2 weeks [2, 6]: a finding of a complete atrioventricular block
time the conduction block effect by PDT was maintained [2, 6]: 2 weeks
atrioventricular block (electrocardiogram) ([2]; Experiment 2: 10 mg/kg, interval 2 min, 300 J/cm^2): a 2:1 atrioventricular block occurred, but was resolved thereafter
atrioventricular block (electrocardiogram) [2, 7]: a 2:1 atrioventricular block and a complete atrioventricular block occurred from immediately after photoradiation
electrocardiogram finding after completion of photoradiation [2, 7]: extrasystoles of the ventricle were observed
photosensitizer distribution in cardiac muscle tissue ([3]; 30 and 60 min after injection): white streaks were observed all over the images at 30 and 60 min, showing the existence of the photosensitizer in the surroundings
photosensitizer distribution in cardiac muscle tissue ([3]; approx. 5 min after injection): almost no photosensitizer was present immediately after the intravenous injection
half-life ([4]; 0 to 60 min): 1.08 h
half-life ([4]; later phase): 13.3 h
early average half-life in plasma [5]: 14.6 h
plasma concentration at 10 min [5]: 27000 ng/mL

Source: patent US9724537B2, “Abnormal electrical conduction blocking apparatus using photodynamic therapy (PDT)” (Keio University, priority 2006, dated 2017)
